# Results taken from a melting point compilation (Tetko et al.; mined from patent text by program, amines drawn as free bases though some values may be those of a salt).
row,Structure (SMILES),melting point [°C]
1,CCCCOc1ccc(CCCO)c(Oc2ncc(C(F)(F)F)cc2Cl)c1,72.6 to 72.7
2,Clc1cccc(CC[C@H]2CN(Cc3ccccc3)CCN2Cc2ccccc2)c1,56 to 60
3,Clc1ccc(-c2cc3ccccc3nc2Cl)c(Cl)c1,120 to 122
4,CC(NC(=O)C=Cc1ccc(C(C)(C)C)cc1)c1ccc(NS(C)(=O)=O)c(F)c1 (stereo unspecified),154 to 156
5,CCN(CC)CCOc1cccc2c1c1cccc(F)c1n2Cc1ccccc1,60 to 60.5
6,Cc1cc(C)n2ncc([N+](=O)[O-])c2n1,156 to 157
7,CC(C)(O)C(=O)Nc1ccc(Sc2ccc(NS(C)(=O)=O)cc2)cc1Cl,138 to 140
8,O=C1C(=O)c2ccccc2C2=C1SCC1(CCN(S(=O)(=O)c3c(Cl)nc4sccn34)CC1)O2,265 to 267
9,COc1ccc2c(c1)C(Cc1ccnc(F)c1)(Cc1ccnc(F)c1)c1ccccc1-2,143 to 146
10,CCC1CC2C3CCC4=CC(=O)CCC4=C3C=CC2(C)C1OC(C)=O (stereo unspecified),95 to 98
11,COc1cc(NC(=C(C#N)S(C)(=O)=O)C(C)C)cc(OC)c1,135 to 136
12,OC(Cn1cncn1)(CC(Cl)(Cl)Cl)c1ccc(F)cc1 (stereo unspecified),127
13,CC(C)Oc1ccc([N+](=O)[O-])cc1C(=O)O,124 to 125
14,Cc1nc(Sc2ccc([N+](=O)[O-])cc2)nc(C)c1Cl,110
15,CCc1ccc(-c2c(Cl)c(CN3C(=O)CCC3=O)nc3sc4c(c23)CCNC4)cc1,157 to 158
16,O=S(=O)(/C=C/c1ccccc1)Nc1ccc(Cl)cc1,107 to 109
17,CC1(c2ccccc2)SC(=S)N(Nc2ccccc2)C1=NOC(=O)Nc1ccc(Cl)c(Cl)c1 (stereo unspecified),95 to 96
18,CCCCCCC(Nc1ccccc1)=C1C(=O)ON=C1C,83 to 84
19,COc1cc(C2CCNCC2)ccc1Nc1ncc2ccc(N3CC(c4ccccc4)CC3=O)n2n1 (stereo unspecified),178 to 183
20,O=c1c2c[nH]c3c(c-2nn1-c1ccccc1)COCC3,304 to 306
21,CN(C)C1CCN(C2CCN(c3ncc4ncnc(Nc5ccc(F)c(Cl)c5)c4n3)CC2)CC1,160 to 165
22,Cc1cc(C)cc(S(=O)(=O)n2c(CCC(=O)O)cc3cc(Cl)ccc32)c1,189 to 193
23,COC(=O)C(Oc1nc(C)cc(OC)n1)C(OCC(C)(C)C(=O)OC)(c1ccccc1)c1ccccc1 (stereo unspecified),143
24,O=C(NC1CCOC(O)C1)c1ccc2nonc2c1 (stereo unspecified),91 to 92

row,Structure (SMILES),melting point [°C]
1,O=P(Oc1ccccc1)(Oc1ccccc1)C1(N2CCOCC2)CCCCC1,103 to 106
2,CC(C)[C@@H]1C[C@@H]([C@H](Br)CC2CCCCC2)OC1=O,95 to 95.5
3,CCc1noc(C)c1-c1[nH]c2ccccc2c1C(=O)CCN(C)C,146 to 148
4,O=C1CCC2=C(CCc3cc(F)ccc32)N1Cc1ccccc1,101 to 102
5,Cc1cc(-n2ncc(=O)[nH]c2=O)cc(Cl)c1Oc1ccc(O)c(S(=O)(=O)c2ccccc2)c1,78 to 81
6,COC(OC)c1ncc[nH]1,122
7,NC(=O)CC(O)(Cn1cncn1)c1ccc(Cl)cc1Cl (stereo unspecified),144 to 145
8,COc1ccc(-c2ccc3c(C(=O)c4ccn5c4CSC5c4cccnc4)c[nH]c3c2)cc1 (stereo unspecified),246 to 248
9,CON=C(C)c1cc(-c2ccc(S(C)(=O)=O)cc2)c(-c2ccc(F)cc2)s1,200 to 203
10,CCCn1c2ccccc2c2cc(C(=O)CC(C)=O)ccc21,97
11,O=C(O)CCC(=NOCc1ccc(OCc2ccccc2)cc1)c1ccccc1,86 to 87
12,CCn1cc(C(=O)O)c(=O)c2cc(F)c(N3CC4CCCC3CN4C)c(F)c21 (stereo unspecified),> 300
13,COc1cc(S(=O)(=O)C(c2cc(F)ccc2F)c2cc(N)ncc2Cl)ccc1Cl (stereo unspecified),198 to 200
14,COC(c1ccccc1)C1CCCCCC(Cc2ccccc2)C1=O (stereo unspecified),83 to 84
15,O=C(c1ccc(Nc2ncnc3ccccc23)cc1)N1CCN(c2ncc(Cc3ccccc3)cn2)CC1,245 to 247
16,CC1Cc2cc3c(cc2C(c2ccc([N+](=O)[O-])cc2)=NN1c1ccc(Cl)nn1)OCO3 (stereo unspecified),254 to 255
17,COc1ccc(CC(NC(=O)c2ccccc2)c2cccnc2)cc1OC (stereo unspecified),156 to 158
18,Cc1ccc(COc2ccc(C=NCc3ccco3)cc2)cc1,71
19,CCOC(=O)c1ccc(Cc2nc3n(-c4c(Cl)cc(Cl)cc4Cl)[nH]c(C(C)C)c-3c(=O)n2)cc1,233 to 235
20,CC(NC(=O)Cc1cc(F)cc(F)c1)C(=O)NC1CCCCCNC(=O)C1 (stereo unspecified),> 220
21,CC(C)(Cl)C(CCn1ccnc1[N+](=O)[O-])N=O (stereo unspecified),96 to 97
22,CNS(=O)(=O)c1cc2c(cc1CC(=O)O)CCCC2,153 to 155
23,CC(C)(C)C(NC(=O)c1ccc(Cl)cc1)NS(=O)(=O)Nc1cccnc1 (stereo unspecified),166 to 167
24,CC(C)(C)OC(=O)N1CCN(C(=O)N2CCC(c3[nH]nc4c3C(=O)c3c(NC(=O)NN5CCOCC5)cccc3-4)CC2)CC1,231 to 232

row,Structure (SMILES),melting point [°C]
1,CCOC(=O)N1CCN(c2ccc(-n3cnn(C(C)(C)C(=O)c4ccc(Cl)cc4)c3=O)cc2)CC1,137
2,O=C1Nc2cccnc2N(CCCCN2CCCCC2)c2ccccc21,131 to 132
3,c1nnc(N2CCN(Cc3ccc4c(c3)OCO4)CC2)s1,111 to 112
4,O=C1c2ccccc2N(N2CCOCC2)C2=NCCN12,250 to 251
5,COc1cccc(-c2nc3n(n2)Cc2cc(Cl)ccc2-3)c1,229 to 230
6,Nc1nc(N)c2c(ccc3c2cc(Cl)n3Cc2ccccc2)n1,285 to 286
7,COC(=O)C(=NO)c1ccccc1,151 to 153
8,COC(=O)C=C1NC(Cc2ccccc2)COC1=O (stereo unspecified),82 to 83
9,CCOC(=O)c1c(O)ccc(Cc2c[nH]cn2)c1C,42 to 45
10,Cn1ncc(-c2ccc3c(c2)c(C2=CCN(CCN4CCNC4=O)CC2)cn3-c2ccc(F)cc2)n1,175 to 177
11,O=C(O)Cn1c(C(=O)O)cc(=O)c2c1C(=O)C(O)=C2,> 270
12,CC(=O)Nc1ccc2c(c1)OCCN2C(C)=O,150 to 154
13,Cc1ccc(Cn2ccc(OCc3ccccc3)c(Br)c2=O)cc1,150 to 151
14,CC1(C)Oc2ccsc2C(N2CC(=O)NCC2=O)C1O (stereo unspecified),132 to 133
15,CC(Nc1nc2ccc(Cl)cc2cc1C(=O)O)C(=O)Nc1ccc2ccccc2c1 (stereo unspecified),230 to 243
16,Cc1cc(CCCOc2ccc(-c3noc(C(F)(F)F)n3)cc2)on1,68 to 69
17,COc1ccc(N(N=Cc2ccccc2)C(=O)c2ccccc2)cc1,151 to 153
18,CCOC(=O)c1c(C)[nH]c(-c2ccncc2)c1C,180 to 182
19,Cc1nc(-c2ccc(-c3cc(C(F)(F)F)nn3-c3ccc(S(C)(=O)=O)c(F)c3)cc2)cs1,139 to 141
20,O=S(=O)(c1ccc(O)c(-c2ccccc2)c1)c1ccc(O)c(-c2ccccc2)c1,243 to 245
21,Cc1cccc2sc(S)nc12,161 to 173
22,COC1=C(OC)C(=O)C2=C(CCC(CCn3cnc4ccccc43)CC2)C1=O,159 to 163
23,Cn1c(=O)c2c(ncn2CCCCC#N)n(C)c1=O,118 to 120
